Measurements: patent publication US10716797B2, “Steroid alkaloids and compositions and kits thereof” (priority 2013, dated 2020)
Read-outs that look alike come from different tables or passages of the source.

Experiments:
[1] = system: Staphylococcus aureus ATCC 29213; assay: MIC by microdilution, compound alone or in combination with an aminoglycoside; format: cell-based; settings: for potentiation / synergy with aminoglycoside (gentamicin) in words: S. aureus ATCC 29213; for MIC: Staphylococcus aureus, ATCC29213, 20 h; for Combination MIC vs ATCC29213 (MIC of gentamicin in combination with the compound): MIC of gentamicin alone 0.5 μg/mL; for MIC of aminoglycoside against S. aureus ATCC 29213 in combination with Compound 14: Compound 14 used at 4 μg/mL; for Potentiation fold with Compound 14: MIC aminoglycoside alone / MIC with Compound 14 at 4 μg/mL; for MIC vs ATCC29213: hydrochloride
Description: (§1) Method. The minimal inhibitory concentrations (MICs), (i.e. lowest concentration of an antimicrobial that will inhibit the visible growth of a microorganism after incubation), of test compounds were determined against the normal or SCV strains of bacterial species from the Firmicutes phylum. Briefly, MICs were determined using the microdilution method in 96-well plates (Clinical and Laboratory Standards Institute (CLSI), 2011). Bacteria were inoculated at ˜10^5-10^6 CFU/mL and incubated at 35° C. for 20 h (normal strains) or 48 h (SCVs) in brain heart infusion (BHI) broth in order to allow SCVs to reach maximal growth as previously described (Mitchell et al., 2012). Then OD595 nm was read on a microplate reader. […] In this example the range of compound concentrations tested was 0.03 to 64 μg/ml using doubling increments. Strain Staphylococcus aureus NewbouldΔhemB (hemB) was also used in the experiments and is a laboratory-derived stable SCV created by the insertion of the macrolide resistance gene ermA in the hemB gene of this strain to create the SCV phenotype (defective electron transport chain and respiratory deficiency) through inactivation of hemin biosynthesis (Brouillette et al., 2004).
The various antibacterial activities of the test compounds against Staphylococcus aureus ATCC 29213, alone or in combination with gentamicin, and alone against the SCV strain hemB are reported in Table 1.

[2] = system: S. aureus SCV strain NewbouldΔhemB; assay: MIC by microdilution against SCV strain; format: cell-based, Staphylococcus aureus; settings: for Activity of the compounds against the SCV strain (class) / MIC vs SCV: compound tested alone, strain NewbouldΔhemB
Description: as §1, with “2004). […]” for “2004).”

MRSA USA100 = assay: MIC by microdilution, alone or in combination, MRSA USA100; format: cell-based, Staphylococcus aureus; settings: agent used alone
Description: as §1
(§2) In the present Example the range of compound concentrations tested, using doubling increments, was 0.03 to 64 μg/ml for Compound 14 and up to 1024 μg/ml for gentamicin (GEN), kanamycin (KAN) and cefalexin (CEF) when these compounds were used alone. Compound 14 (Cpd 14) was used at a fixed concentration of 4 μg/ml when added to other antibiotics. The combination of CEF and KAN was used in a 3:2 ratio and doubling increments were used to test the antibacterial activity against MRSA in the absence or presence of Compound 14.

MRSA USA300 = assay: MIC by microdilution, alone or in combination, MRSA USA300; format: cell-based, Staphylococcus aureus; settings: agent used alone
Description: as §1, §2

MRSA COL = assay: MIC by microdilution, alone or in combination, MRSA COL; format: cell-based, Staphylococcus aureus; settings: agent used alone
Description: as §1, §2

S. aureus hemB (SaR1) = assay: MIC against tomatidine-resistant SCV mutant SaR1; format: cell-based, Staphylococcus aureus; settings: tomatidine-resistant mutant SaR1
Description: (§3) At each passage, using a microdilution method in 96-well microplates, S. aureus hemB was inoculated at ˜10^5-10^6 CFU/ml and incubated at 35° C. for 48 h. The range of tomatidine concentrations tested was 0.03 to 64 μg/ml using doubling increments. The concentration of gentamicin was fixed at 4 μg/mL when it was used in combination with tomatidine. At each passage, the minimal inhibitory concentrations (MICs) (i.e. lowest concentration of an antimicrobial that inhibits the visible growth of bacteria), of tomatidine was determined. The bacteria used as inoculum for the next passage were from the well preceeding the well showing the MIC (i.e. the well containing half the MIC). At each passage, the population of bacteria serving as the inoculum for the next passage was spread on BHI agar plates and three isolated colonies were collected and frozen until used for whole-genome sequencing.

S. aureus hemB (SaR2) = assay: MIC against tomatidine-resistant SCV mutant SaR2; format: cell-based, Staphylococcus aureus; settings: tomatidine-resistant mutant SaR2
Description: as §3

[3] = system: Listeria monocytogenes (strain ATCC 13932); assay: Time-kill experiments, Listeria monocytogenes; format: cell-based
Description: Time-kill experiments were performed in order to determine whether the effect of test compounds or the combination with an aminoglycoside on Listeria monocytogenes (strain ATCC 13932) is bacteriostatic (prevents growth) or bactericidal (kills cells).
At several time points during growth at 35° C. (225 RPM), bacteria were sampled, serially diluted and plated on Brain Hearth Infusion agar (BHIA) for colony-forming unit (CFU) determinations (i.e., viable bacterial counts). Plates were incubated for 24 h at 35° C. It represents the results of three independent experiments.

[4] = MIC gentamicin alone / MIC gentamicin with compound at 8 μg/mL
[5] = compound tested alone, read-out: MIC vs ATCC29213
[6] = Staphylococcus aureus, read-out: MIC vs SCV
[7] = read-out: MIC of aminoglycoside against S. aureus ATCC 29213, aminoglycoside alone
[8] = Staphylococcus aureus, read-out: MIC
[9] = S. aureus hemB (SCV strain NewbouldΔhemB)

CCCCNC(C)[C@H]1CC[C@H]2[C@@H]3CC[C@H]4C[C@@H](O)CC[C@]4(C)[C@H]3CC[C@]12C.Cl (mixture of isomers) [Compound 48, 3β-Hydroxy-20-butylamino-5α-pregnane hydrochloride]
potentiaton fold with gentamicin [1, 4]: 8 x
potentiation / synergy with aminoglycoside (gentamicin) in words [1]: strong or moderate synergy
MIC [1, 5]: 64 µg/mL
potentiation activity with gentamicin in words ([1]; compound used at 8 μg/mL): High
Combination MIC vs ATCC29213 (MIC of gentamicin in combination with the compound) ([1]; compound used at 8 μg/mL): 0.06
MIC [2, 6]: 4 to 8 µg/mL
Activity of the compounds against the SCV strain (class) [2]: Moderate (MIC = 0.5-4 μg/mL: moderate activity)

CC(C)CCNC(C)[C@H]1CC[C@H]2[C@@H]3CC[C@H]4C[C@@H](O)CC[C@]4(C)[C@H]3CC[C@]12C.Cl (mixture of isomers) [Compound 50, 3β-Hydroxy-20-isopentylamino-5α-pregnane hydrochloride]
potentiaton fold with gentamicin [1, 4]: 4 x
potentiation / synergy with aminoglycoside (gentamicin) in words [1]: strong or moderate synergy
MIC [1, 5]: > 64 µg/mL
potentiation activity with gentamicin in words ([1]; compound used at 8 μg/mL): Moderate
Combination MIC vs ATCC29213 (MIC of gentamicin in combination with the compound) ([1]; compound used at 8 μg/mL): 0.12
MIC [2, 6]: > 8 µg/mL
Activity of the compounds against the SCV strain (class) [2]: Low (MIC = ≥8 μg/mL: low activity)

NCC[C@H](O)C(=O)N[C@@H]1C[C@H](N)[C@@H](O[C@H]2O[C@H](CN)[C@@H](O)[C@H](O)[C@H]2O)[C@H](O)[C@H]1O[C@H]1O[C@H](CO)[C@@H](O)[C@H](N)[C@H]1O [Amikacin, reference compound]
MIC of aminoglycoside against S. aureus ATCC 29213 in combination with Compound 14 [1]: 0.25 µg/mL
Potentiation fold with Compound 14 [1]: 16 fold
MIC [1, 7]: 4 µg/mL

C[C@H]1CC[C@]2(NC1)O[C@H]1C[C@H]3[C@@H]4CC[C@H]5CC(NCCCCN)CC[C@]5(C)[C@H]4CC[C@]3(C)[C@H]1[C@@H]2C.Cl.Cl.Cl (stereo partly drawn) [Compound 16, 3-(N-aminobutyl)-aminotomatidine hydrochloride]
potentiaton fold with gentamicin ([1]; MIC gentamicin alone / MIC gentamicin with compound at 4 μg/mL): 4-8 x
potentiation / synergy with aminoglycoside (gentamicin) in words [1]: retain the ability to potentiate
activity vs ATCC29213 in words ([1]; compound tested alone): Active
MIC vs ATCC29213 ([1]; compound tested alone): 16 µg/mL
potentiation activity with gentamicin in words ([1]; compound used at 4 μg/mL): Moderate-high
Combination MIC vs ATCC29213 (MIC of gentamicin in combination with the compound) ([1]; compound used at 4 μg/mL): 0.06-0.12
Activity of the compounds against the SCV strain (class) [2]: Moderate (MIC = 0.5-4 μg/mL: moderate activity)
MIC vs SCV [2]: 0.5 µg/mL

C[C@H]1CC[C@]2(NC1)O[C@H]1C[C@H]3[C@@H]4CC[C@H]5CC(NCCCCCCN)CC[C@]5(C)[C@H]4CC[C@]3(C)[C@H]1[C@@H]2C.Cl.Cl.Cl (stereo partly drawn) [Compound 18, 3-(N-aminohexyl)-aminotomatidine hydrochloride]
potentiaton fold with gentamicin [1, 4]: 2-4 x
potentiation activity with gentamicin in words ([1]; compound used at 8 μg/mL): Moderate
Combination MIC vs ATCC29213 (MIC of gentamicin in combination with the compound) ([1]; compound used at 8 μg/mL): 0.12-0.25
Activity of the compounds against the SCV strain (class) [2]: Moderate (MIC = 0.5-4 μg/mL: moderate activity)
MIC vs SCV [2]: 1 µg/mL

NC[C@H]1O[C@H](O[C@H]2[C@H](O)[C@@H](O[C@H]3O[C@H](CO)[C@@H](O)[C@H](N)[C@H]3O)[C@H](N)C[C@@H]2N)[C@H](O)[C@@H](O)[C@@H]1O [Kanamycin, kanamycin, reference compound]
MIC of aminoglycoside against S. aureus ATCC 29213 in combination with Compound 14 [1]: 0.25 µg/mL
Potentiation fold with Compound 14 [1]: 16 fold
MIC [1, 7]: 4 µg/mL
MIC (MRSA USA100; [8]): 256 µg/mL
MIC (MRSA USA300; [8]): > 1020 µg/mL
MIC (MRSA COL; [8]): 4 µg/mL

[H]/N=C(/N)N[C@H]1[C@H](O)[C@@H](O)[C@H](O[C@@H]2O[C@@H](C)[C@](O)(C=O)[C@H]2O[C@@H]2O[C@@H](CO)[C@H](O)[C@@H](O)[C@@H]2NC)[C@@H](N/C(N)=N\[H])[C@@H]1O [Streptomycin, reference compound]
MIC of aminoglycoside against S. aureus ATCC 29213 in combination with Compound 14 [1]: 1 µg/mL
Potentiation fold with Compound 14 [1]: 4-8 fold
MIC [1, 7]: 4 to 8 µg/mL

NC[C@H]1O[C@H](O[C@H]2[C@H](O)[C@@H](O[C@H]3O[C@H](CO)[C@@H](O)[C@H](N)[C@H]3O)[C@H](N)C[C@@H]2N)[C@H](N)C[C@@H]1O [Tobramycin, reference compound]
MIC of aminoglycoside against S. aureus ATCC 29213 in combination with Compound 14 [1]: 0.125 µg/mL
Potentiation fold with Compound 14 [1]: 8 fold
MIC [1, 7]: 1 µg/mL

Tomatidine hydrochloride [Compound 3, reference compound]
MIC (S. aureus hemB (SaR1)): >32 µg/mL
MIC vs ATCC29213 ([1]; compound tested alone): >64 µg/mL
MIC vs ATCC29213 ([1]; compound tested alone, listed as tomatidine hydrochloride salt): > 64 µg/mL
potentiation activity with gentamicin in words ([1]; compound used at 8 μg/mL): High
Combination MIC vs ATCC29213 (MIC of gentamicin in combination with the compound) ([1]; compound used at 8 μg/mL): 0.06
MIC [2, 9]: 0.0625 µg/mL
Activity of the compounds against the SCV strain (class) [2]: High (MIC = 0.06-0.25 μg/mL: high activity)
MIC vs SCV [2]: 0.06 µg/mL
MIC (S. aureus hemB (SaR2)): >32 µg/mL
effect in time-kill in combination with gentamicin ([3]; 8 μg/ml with 2 μg/ml gentamicin): not seen
effect on growth in time-kill (CFU) ([3]; used alone at 8 μg/ml): does not affect the growth

gentamicin [reference compound]
MIC (S. aureus hemB (SaR1)): 4 to 8 µg/mL
MIC of aminoglycoside against S. aureus ATCC 29213, aminoglycoside alone ([1]; aminoglycoside alone): 0.5 µg/mL
MIC (MRSA USA100): 0.5 µg/mL
MIC [2, 9]: 4 to 8 µg/mL
MIC (S. aureus hemB (SaR2)): 16 µg/mL
MIC (MRSA USA300): 0.5 µg/mL
MIC (MRSA COL): 0.25 µg/mL
